Test results taken from PMC12723449, “From Pharmacophore to Warhead: NAD^+‐Targeting Triazoles as Mechanism‐Based Sirtuin Inhibitors” (Angewandte Chemie (International Ed. in English), 2025).
Where two headings read alike, the source gives them in different places.

What was measured:
SIRT2 = molecular target: T1, SIRT2 (Homo sapiens, UniProt Q8IXJ6); test: Fluorescence-based deacetylation assay (ZMAL-assay), SIRT2; format: biochemical; details: 37 °C, assay limit 0.10 µM, read-out: SIRT2 (deac.) IC50
T1 construct: For assay experiments, strep-tagged human SIRT1134−747 and SIRT256-356 were expressed and purified as previously; Strep-tag; made in house; host or cells: E. coli BL21 Star (DE3)
T1 sequence (Q8IXJ6 56-356 limits assumed): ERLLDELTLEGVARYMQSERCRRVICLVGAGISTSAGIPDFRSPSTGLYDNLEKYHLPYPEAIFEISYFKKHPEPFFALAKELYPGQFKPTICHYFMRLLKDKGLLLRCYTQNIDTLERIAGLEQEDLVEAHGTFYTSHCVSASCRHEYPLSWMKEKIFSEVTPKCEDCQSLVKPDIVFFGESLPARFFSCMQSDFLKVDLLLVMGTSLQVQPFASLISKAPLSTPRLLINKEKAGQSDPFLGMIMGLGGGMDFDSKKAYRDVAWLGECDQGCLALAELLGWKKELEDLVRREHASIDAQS
Description: Determination of IC50 values (SIRT1, SIRT2, SIRT3) via fluorescence-based deacetylation assay […]
The fluorescence-based deacetylation assay was conducted in a black 384-well microplate (OptiPlate-384 F, PerkinElmer) with a total volume of 30 µL per well and a final DMSO concentration of 2% (v/v) according to a […]
concentration of 100 nM) in assay buffer (50 mM Tris, 137 mM NaCl, 2.7 mM KCl, 1m MgCl2, 0.01% Tween, 0.05 mg/mL BSA, 0.2 mM TCEP, pH 8.0), 5 µL of substrate (ZMAL, final concentration of 10.5 µM), 5 µL of NAD+ (final concentration of 500 µM) and 10 µL of inhibitor solution (final concentration of 30 µM – 0.014 µM, serial 1:3 dilutions) was incubated at 37 °C and 300 rpm for 4 h. A solution of trypsin (final concentration of 0.5 mg/mL) and nicotinamide (final concentration of 4 mM) was added and incubated at 37 °C and 300 rpm for 30 min to stop the reaction. Samples with 2% (v/v) DMSO instead of inhibitor were prepared as a positive control, and samples with 2% (v/v) DMSO instead of SIRT enzyme were prepared as a negative control. Fluorescence intensity was measured with a microplate reader (λEx = 380-10 nm, λEm = 460 nm, BMG POLARstar Optima, BMG Labtech, Germany). IC50 values were then determined using a nonlinear regression fit with Origin Pro 2019 software. All experiments were performed at least in duplicates. […]

[1] = molecular target: T2, NanoLuc–SIRT2 fusion protein in HEK293T cells (Homo sapiens, UniProt Q8IXJ6); test: NanoBRET cellular target engagement assay; format: cell-based; details: for Ki: read-out: NanoBRET K i (Cheng–Prusoff)
T2 construct: transfected HEK293T cells expressing the NanoLuc-tagged SIRT250-356 fusion protein were used instead of transient; expressed in transfected cells; host or cells: HEK293T (stably transfected)
T2 sequence (Q8IXJ6 50-356 limits assumed): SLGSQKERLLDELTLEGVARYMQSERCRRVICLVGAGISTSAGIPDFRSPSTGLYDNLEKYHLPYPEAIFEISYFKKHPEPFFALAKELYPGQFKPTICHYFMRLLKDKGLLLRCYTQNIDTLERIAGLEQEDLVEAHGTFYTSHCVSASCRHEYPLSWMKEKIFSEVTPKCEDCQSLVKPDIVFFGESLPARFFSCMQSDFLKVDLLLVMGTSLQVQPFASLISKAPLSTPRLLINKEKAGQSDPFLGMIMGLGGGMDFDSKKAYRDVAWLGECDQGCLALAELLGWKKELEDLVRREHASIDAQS
Description: The NanoBRET target engagement assay was performed as previously described[2] with the modification that stably transfected HEK293T cells expressing the NanoLuc-tagged SIRT250-356 fusion protein were used instead of transient transfection. Briefly, HEK293T-NLuc- SIRT250-356 cells were cultured under standard conditions (37 °C, 5% CO2) in DMEM supplemented with 10% fetal bovine serum, 2 mM glutamine, and 300 µg/mL hygromycin as a selection marker. For the assay, cells were trypsinized, resuspended in Opti-MEM® reduced serum medium, and adjusted to a concentration of 2 × 10^5 cells per mL. […]
µM was used. Serially diluted inhibitor and tracer were added to the cell suspension, and 100 μL were seeded into 96-well white, sterile, nonbinding surface plates. To evaluate the cellular permeability of LTDi-1 (6), the non-ionic detergent digitonin (50 µg/ml) was added. Plates were incubated at 37 °C with 5% CO2 for 2 h. For BRET measurements, NanoBRET NanoGlo Substrate (Promega cat. #N1571) was added to the wells according to the […]
All measurements were performed using the 2102 EnVisionTM Multilabel Reader (PerkinElmer), equipped with a 460 nm filter (donor) and a 615 nm filter (acceptor). The BRET ratio was calculated as the ratio of acceptor to donor signal, and data were normalized to vehicle-treated controls. Apparent intracellular binding affinities (EC50 values) were determined by fitting dose-response curves using nonlinear regression analysis in GraphPad Prism. […]

[2] = 2 µM tracer, co-treatment with digitonin

Row | SMILES | IC50 (SIRT2) | EC50 [1, 2] | Ki [1, 2] | EC50 ([1]; 2 µM tracer, without digitonin) | Ki ([1]; 2 µM tracer, without digitonin) | EC50 ([1]; without digitonin)
1 | CCCCCCCCCCCCc1cn(CCCC[C@H](NC(=O)[C@H](CCCCN)NC(=O)[C@@H]2CCCN2C(=O)[C@H](CC(C)C)NC(=O)[C@H](C)NC(=O)[C@H](CCC(=O)O)NC(C)=O)C(=O)N[C@H](C(=O)NCC(=O)NCC(N)=O)[C@@H](C)O)nn1 [Compound 6] | < 100 nM | 160 ± 20 nM | 18 ± 2 nM | 340 ± 90 nM | 38 ± 10 nM | –
2 | COCCn1cc(COc2cccc(Cc3cnc(NC(=O)CSc4nc(C)cc(C)n4)s3)c2)nn1 [Compound 1, reference compound] | – | – | – | – | – | 2700 ± 100 nM
3 | Cc1cc(C)nc(SCC(=O)Nc2ncc(Cc3cccc(OCc4c[nH]nn4)c3)s2)n1 [Compound 7] | 7800 ± 2100 nM | – | – | – | – | –
